Source: patent publication US10407467B2, “Polymyxin derivatives and their use in combination therapy together with different antibiotics” (priority 2013, dated 2019)

Tests used:
Test in all cases: MIC, sole activity (no second agent)
Type in all cases: cell-based
Conditions in all cases: Table 6A; no second agent; different supplier of Cation-adjusted MHB
[1] = test system: Klebsiella pneumoniae
In short: (§1)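 Up to four strains per species were tested in cation-adjusted Mueller-Hinton broth, with inoculum made by direct colony suspension from 18-24 hour Mueller-Hinton agar plates, adjusted to 0.5 McFarland. Duplicates differing by under 2-fold gave the lower value; greater spread voided the run. Values are relative to Polymyxin B.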

[2] = test system: Escherichia coli
In short: as §1

[3] = test system: Acinetobacter baumannii
In short: as §1

[4] = test system: Pseudomonas aeruginosa
In short: as §1

D-Pro polymyxin B nonapeptide [Example A36]
MIC K. pneumoniae ATCC 4352 [1]: 1 micrograms/mL
MIC K. pneumoniae ATCC BAA-2146 [1]: 8 micrograms/mL
MIC E. coli ATCC25922 [2]: 2 micrograms/mL
MIC E. coli NCTC 13441 [2]: 2 micrograms/mL
MIC A. baumannii ATCC BAA-747 [3]: 8 micrograms/mL
MIC A. baumannii NCTC 13424 [3]: 8 micrograms/mL
MIC P. aeruginosa ATCC 27853 [4]: 1 micrograms/mL
MIC P. aeruginosa CCUG 59347 [4]: 4 micrograms/mL

L-Pro polymyxin B nonapeptide [Example A37]
MIC K. pneumoniae ATCC 4352 [1]: >8 micrograms/mL
MIC K. pneumoniae ATCC BAA-2146 [1]: >8 micrograms/mL
MIC E. coli ATCC25922 [2]: >8 micrograms/mL
MIC E. coli NCTC 13441 [2]: >8 micrograms/mL
MIC A. baumannii ATCC BAA-747 [3]: >8 micrograms/mL
MIC A. baumannii NCTC 13424 [3]: >8 micrograms/mL
MIC P. aeruginosa ATCC 27853 [4]: 2 micrograms/mL
MIC P. aeruginosa CCUG 59347 [4]: >8 micrograms/mL

Piperidine-1-ylethanoyl polymyxin B nonapeptide [Example A2]
MIC K. pneumoniae ATCC 4352 [1]: 8 micrograms/mL
MIC E. coli ATCC25922 [2]: 4 micrograms/mL
MIC E. coli NCTC 13441 [2]: >8 micrograms/mL
MIC A. baumannii ATCC BAA-747 [3]: >8 micrograms/mL
MIC A. baumannii NCTC 13424 [3]: >8 micrograms/mL
MIC P. aeruginosa ATCC 27853 [4]: 2 micrograms/mL
MIC P. aeruginosa CCUG 59347 [4]: 4 micrograms/mL

Piperidine-2-carbonyl polymyxin B nonapeptide. Isomer 1 [Example A25]
MIC K. pneumoniae ATCC 4352 [1]: 8 micrograms/mL
MIC K. pneumoniae ATCC BAA-2146 [1]: >8 micrograms/mL
MIC E. coli ATCC25922 [2]: >8 micrograms/mL
MIC E. coli NCTC 13441 [2]: >8 micrograms/mL
MIC A. baumannii ATCC BAA-747 [3]: >8 micrograms/mL
MIC A. baumannii NCTC 13424 [3]: 8 micrograms/mL
MIC P. aeruginosa ATCC 27853 [4]: 2 micrograms/mL
MIC P. aeruginosa CCUG 59347 [4]: 4 micrograms/mL

Piperidine-2-carbonyl polymyxin B nonapeptide. Isomer 2 [Example A26]
MIC K. pneumoniae ATCC 4352 [1]: 0.5 micrograms/mL
MIC K. pneumoniae ATCC BAA-2146 [1]: 1 micrograms/mL
MIC E. coli ATCC25922 [2]: 2 micrograms/mL
MIC E. coli NCTC 13441 [2]: 2 micrograms/mL
MIC A. baumannii ATCC BAA-747 [3]: 2 micrograms/mL
MIC A. baumannii NCTC 13424 [3]: 1 micrograms/mL
MIC P. aeruginosa ATCC 27853 [4]: 1 micrograms/mL
MIC P. aeruginosa CCUG 59347 [4]: 2 micrograms/mL

[2-(RS)-(2-Hydroxy-2- cyclohexyl)ethanoyl]-L-Thr- L-Dap-polymyxin B heptapeptide [Example A4]
MIC K. pneumoniae ATCC 4352 [1]: 2 micrograms/mL
MIC E. coli ATCC25922 [2]: 1 micrograms/mL
MIC E. coli NCTC 13441 [2]: 4 micrograms/mL
MIC A. baumannii ATCC BAA-747 [3]: >8 micrograms/mL
MIC A. baumannii NCTC 13424 [3]: >8 micrograms/mL
MIC P. aeruginosa ATCC 27853 [4]: 2 micrograms/mL
MIC P. aeruginosa CCUG 59347 [4]: 2 micrograms/mL

[3(R,S)-3-Amino-3- cyclohexanepropanoyl]-Gly- polymyxin B nonapeptide [Example A7]
MIC K. pneumoniae ATCC 4352 [1]: >8 micrograms/mL
MIC E. coli ATCC25922 [2]: >8 micrograms/mL
MIC E. coli NCTC 13441 [2]: >8 micrograms/mL
MIC A. baumannii ATCC BAA-747 [3]: 4 micrograms/mL
MIC A. baumannii NCTC 13424 [3]: 8 micrograms/mL
MIC P. aeruginosa ATCC 27853 [4]: 1 micrograms/mL
MIC P. aeruginosa CCUG 59347 [4]: >8 micrograms/mL

[3(R,S)-3-Amino-3- cyclohexanepropanoyl]-L- Arg- polymyxin B nonapeptide [Example A23]
MIC K. pneumoniae ATCC 4352 [1]: >8 micrograms/mL
MIC K. pneumoniae ATCC BAA-2146 [1]: >8 micrograms/mL
MIC E. coli ATCC25922 [2]: >8 micrograms/mL
MIC E. coli NCTC 13441 [2]: >8 micrograms/mL
MIC A. baumannii ATCC BAA-747 [3]: 2 micrograms/mL
MIC A. baumannii NCTC 13424 [3]: 4 micrograms/mL
MIC P. aeruginosa ATCC 27853 [4]: 8 micrograms/mL
MIC P. aeruginosa CCUG 59347 [4]: >8 micrograms/mL

[3(R,S)-3-Amino-3- cyclohexanepropanoyl]-L- Dab-L-Thr-L-Dap polymyxin B heptapeptide [Example A10]
MIC K. pneumoniae ATCC 4352 [1]: 0.5 micrograms/mL
MIC E. coli ATCC25922 [2]: 1 micrograms/mL
MIC E. coli NCTC 13441 [2]: 1 micrograms/mL
MIC A. baumannii ATCC BAA-747 [3]: 2 micrograms/mL
MIC A. baumannii NCTC 13424 [3]: 2 micrograms/mL
MIC P. aeruginosa ATCC 27853 [4]: 0.25 micrograms/mL
MIC P. aeruginosa CCUG 59347 [4]: 0.25 micrograms/mL

[3(R,S)-3-Amino-3- cyclohexanepropanoyl]-L- His- polymyxin B nonapeptide [Example A19]
MIC K. pneumoniae ATCC 4352 [1]: 8 micrograms/mL
MIC K. pneumoniae ATCC BAA-2146 [1]: 8 micrograms/mL
MIC E. coli ATCC25922 [2]: 8 micrograms/mL
MIC E. coli NCTC 13441 [2]: 4 micrograms/mL
MIC A. baumannii ATCC BAA-747 [3]: 4 micrograms/mL
MIC A. baumannii NCTC 13424 [3]: 4 micrograms/mL
MIC P. aeruginosa ATCC 27853 [4]: 1 micrograms/mL
MIC P. aeruginosa CCUG 59347 [4]: 2 micrograms/mL

[3(R,S)-3-Amino-3- cyclohexanepropanoyl]-L- Phe- polymyxin B nonapeptide isomer 1 [Example A20]
MIC K. pneumoniae ATCC 4352 [1]: >8 micrograms/mL
MIC K. pneumoniae ATCC BAA-2146 [1]: >8 micrograms/mL
MIC E. coli ATCC25922 [2]: >8 micrograms/mL
MIC E. coli NCTC 13441 [2]: >8 micrograms/mL
MIC A. baumannii ATCC BAA-747 [3]: >8 micrograms/mL
MIC A. baumannii NCTC 13424 [3]: >8 micrograms/mL
MIC P. aeruginosa ATCC 27853 [4]: >8 micrograms/mL
MIC P. aeruginosa CCUG 59347 [4]: >8 micrograms/mL

[3(R,S)-3-Amino-3- cyclohexanepropanoyl]-L- Phe- polymyxin B nonapeptide isomer 2 [Example A21]
MIC K. pneumoniae ATCC 4352 [1]: >8 micrograms/mL
MIC K. pneumoniae ATCC BAA-2146 [1]: >8 micrograms/mL
MIC E. coli ATCC25922 [2]: >8 micrograms/mL
MIC E. coli NCTC 13441 [2]: >8 micrograms/mL
MIC A. baumannii ATCC BAA-747 [3]: >8 micrograms/mL
MIC A. baumannii NCTC 13424 [3]: >8 micrograms/mL
MIC P. aeruginosa ATCC 27853 [4]: >8 micrograms/mL
MIC P. aeruginosa CCUG 59347 [4]: >8 micrograms/mL

[3(R,S)-3-Amino-3- cyclohexanepropanoyl]-L- Pro- polymyxin B nonapeptide isomer 1 [Example A8]
MIC K. pneumoniae ATCC 4352 [1]: >8 micrograms/mL
MIC E. coli ATCC25922 [2]: >8 micrograms/mL
MIC E. coli NCTC 13441 [2]: >8 micrograms/mL
MIC A. baumannii ATCC BAA-747 [3]: >8 micrograms/mL
MIC A. baumannii NCTC 13424 [3]: >8 micrograms/mL
MIC P. aeruginosa ATCC 27853 [4]: 2 micrograms/mL
MIC P. aeruginosa CCUG 59347 [4]: 4 micrograms/mL

[3(R,S)-3-Amino-3- cyclohexanepropanoyl]-L- Pro- polymyxin B nonapeptide isomer 2 [Example A9]
MIC K. pneumoniae ATCC 4352 [1]: >8 micrograms/mL
MIC E. coli ATCC25922 [2]: >8 micrograms/mL
MIC E. coli NCTC 13441 [2]: >8 micrograms/mL
MIC A. baumannii ATCC BAA-747 [3]: >8 micrograms/mL
MIC A. baumannii NCTC 13424 [3]: >8 micrograms/mL
MIC P. aeruginosa ATCC 27853 [4]: 2 micrograms/mL
MIC P. aeruginosa CCUG 59347 [4]: >8 micrograms/mL

[3(R,S)-3-Amino-3- cyclohexanepropanoyl]-L- Ser- polymyxin B nonapeptide [Example A11]
MIC K. pneumoniae ATCC 4352 [1]: 8 micrograms/mL
MIC E. coli ATCC25922 [2]: >8 micrograms/mL
MIC E. coli NCTC 13441 [2]: 8 micrograms/mL
MIC A. baumannii ATCC BAA-747 [3]: 4 micrograms/mL
MIC A. baumannii NCTC 13424 [3]: 4 micrograms/mL
MIC P. aeruginosa ATCC 27853 [4]: 1 micrograms/mL
MIC P. aeruginosa CCUG 59347 [4]: 2 micrograms/mL

[3(R,S)-3-Amino-3- cyclohexanepropanoyl]-L- Tyr- polymyxin B nonapeptide [Example A27]
MIC K. pneumoniae ATCC 4352 [1]: >8 micrograms/mL
MIC K. pneumoniae ATCC BAA-2146 [1]: >8 micrograms/mL
MIC E. coli ATCC25922 [2]: >8 micrograms/mL
MIC E. coli NCTC 13441 [2]: >8 micrograms/mL
MIC A. baumannii ATCC BAA-747 [3]: 8 micrograms/mL
MIC A. baumannii NCTC 13424 [3]: >8 micrograms/mL
MIC P. aeruginosa CCUG 59347 [4]: 4 micrograms/mL

[3(R,S)-3-Amino-3- cyclohexanepropanoyl]-[4R- 4-hydroxy-L-Pro]-polymyxin B nonapeptide [Example A12]
MIC K. pneumoniae ATCC 4352 [1]: >8 micrograms/mL
MIC E. coli ATCC25922 [2]: >8 micrograms/mL
MIC E. coli NCTC 13441 [2]: >8 micrograms/mL
MIC A. baumannii ATCC BAA-747 [3]: 8 micrograms/mL
MIC A. baumannii NCTC 13424 [3]: 8 micrograms/mL
MIC P. aeruginosa ATCC 27853 [4]: 2 micrograms/mL
MIC P. aeruginosa CCUG 59347 [4]: 4 micrograms/mL
